Literature values as cited in patent US20190365933A1, “SOLVENT-FREE GADOLINIUM CONTRAST AGENTS” (Inventure, LLC, priority 2016, published 2019).
Where two headings read alike, the source gives them in different places.

| Structure (SMILES) | Conditional stability constant at pH 7.4 (log Keff) (complex of gadolinium with the named ligand, log value) | Thermodynamic stability constants pH 14 (log KGdL) (complex of gadolinium with the named ligand, pH 14, ligand entirely deprotonated, log value) | Conditional stability constant at pH 7.4 (log Keff) | Thermodynamic stability constants pH 14 (log KGdL) (pH 14) |
| --- | --- | --- | --- | --- |
| O=C(O)CN1CCN(CC(=O)O)CCN(CC(=O)O)CCN(CC(=O)O)CC1 [DOTA, 1,4,7,10-tetraazacyclododecane-1,4,7,10-tetraacetic acid] | 17.2 | 24.7 |  |  |
| O=C(O)CNC(=O)CN1CCN(CC(=O)NCC(=O)O)CCN(CC(=O)NCC(=O)O)CCN(CC(=O)NCC(=O)O)CC1 [DOTA-(gly)4] |  |  | 12.7 | 14.54 |
